Values after ≈ are worked out from the molar mass of the structure shown.
Legend:
[1] = tested on: Human immunodeficiency virus 1; experiment: Antiviral activity against HIV1 infected in human C8166 cells; format: functional, organism-based; settings: Human immunodeficiency virus 1, C8166
RAW264.7 [2] = experiment: Inhibition of nitric oxide production in mouse RAW264.7 cells by griess assay; format: functional, cell-based
[3] = target: T1, Prostaglandin G/H synthase 2 (Homo sapiens, UniProt P35354); experiment: Inhibition of recombinant human COX2 assessed as decrease in PGE2 release after 10 mins by EIA
T1 sequence (P35354 whole entry): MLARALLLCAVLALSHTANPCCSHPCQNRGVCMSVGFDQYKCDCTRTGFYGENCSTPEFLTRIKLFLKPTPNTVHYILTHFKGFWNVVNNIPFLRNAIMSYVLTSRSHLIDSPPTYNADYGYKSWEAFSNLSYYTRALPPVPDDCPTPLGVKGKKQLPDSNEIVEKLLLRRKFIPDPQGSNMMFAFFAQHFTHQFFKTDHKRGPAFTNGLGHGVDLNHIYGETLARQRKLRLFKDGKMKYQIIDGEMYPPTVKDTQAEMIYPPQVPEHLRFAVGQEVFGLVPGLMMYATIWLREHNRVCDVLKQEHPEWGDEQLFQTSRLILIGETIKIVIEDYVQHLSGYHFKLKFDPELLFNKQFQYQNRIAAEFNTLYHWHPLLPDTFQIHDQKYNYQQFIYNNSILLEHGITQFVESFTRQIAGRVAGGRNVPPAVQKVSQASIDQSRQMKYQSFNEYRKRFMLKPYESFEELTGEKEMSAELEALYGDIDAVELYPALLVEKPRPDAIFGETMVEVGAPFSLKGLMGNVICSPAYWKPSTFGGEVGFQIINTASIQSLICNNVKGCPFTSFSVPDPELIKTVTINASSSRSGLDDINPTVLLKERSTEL

[4] = tested on: Human immunodeficiency virus 1; experiment: Antiviral activity against wild type HIV1 3B infected in human MT2 cells after 3 days by BrightGlo luciferase reporter gene assay; format: functional, organism-based; settings: Human immunodeficiency virus 1, 3B, MT2, 72 h
Mus musculus = experiment: Antidiabetic activity in db/db mouse assessed as reduction in serum glucose level at 10 to 30 mg/kg, po after 1 week relative to control; format: functional; parameters: scale not given: the % may be the effect or the level left
[5] = tested on: Human immunodeficiency virus 1; experiment: Antiviral activity against HIV1 infected in human MT4 cells; format: functional, organism-based; settings: Human immunodeficiency virus 1, MT4
[6] = tested on: Mycobacterium tuberculosis; experiment: Antimycobacterial activity against Mycobacterium tuberculosis; format: functional
Plasmodium falciparum = experiment: Antiplasmodial activity against chloroquine-resistant Plasmodium falciparum Dd2; format: functional, organism-based
[7] = target: Sodium-dependent serotonin transporter (Homo sapiens, UniProt P31645); experiment: Inhibition of 5HT transporter (unknown origin)
[8] = Inhibition of TNFalpha-induced NFkappaB activation in HEK293 cells preincubated for 6 hrs followed by TNFalpha addition by luciferase reporter gene assay; format: cell-based; settings: Homo sapiens
RAW264.7 [9] = experiment: Inhibition of LPS-induced nitric oxide production in mouse RAW264.7 cells preincubated for 15 mins followed by LPS stimulation measured after 20 hrs by griess assay; format: functional, cell-based
[10] = tested on: Human immunodeficiency virus 1; experiment: Antiviral activity against wild type HIV1 infected in human MT4 cells; format: functional, organism-based; settings: Human immunodeficiency virus 1, MT4
[11] = tested on: Mycobacterium tuberculosis; experiment: Antimycobacterial activity against drug-sensitive Mycobacterium tuberculosis; format: functional
Dihydrofolate reductase [12] = target: T2, Dihydrofolate reductase (Homo sapiens, UniProt P00374); experiment: Inhibition of human DHFR
T2 sequence (P00374 whole entry): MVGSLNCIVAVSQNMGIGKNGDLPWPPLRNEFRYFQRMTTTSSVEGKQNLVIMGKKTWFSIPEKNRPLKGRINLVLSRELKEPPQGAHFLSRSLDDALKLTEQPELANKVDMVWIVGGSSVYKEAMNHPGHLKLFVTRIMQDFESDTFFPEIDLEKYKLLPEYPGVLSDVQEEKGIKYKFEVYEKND

Dihydrofolate reductase [13] = target: T3, Dihydrofolate reductase (Mycobacterium tuberculosis, UniProt P9WNX1); experiment: Inhibition of Mycobacterium tuberculosis H37Rv DHFR
T3 sequence (P9WNX1 whole entry): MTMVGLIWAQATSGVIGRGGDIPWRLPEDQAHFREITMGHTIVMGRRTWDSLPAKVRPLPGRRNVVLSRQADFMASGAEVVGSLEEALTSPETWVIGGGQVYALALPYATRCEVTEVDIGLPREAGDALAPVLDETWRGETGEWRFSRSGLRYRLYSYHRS

Sodium-dependent serotonin transporter, sequence (P31645 whole entry): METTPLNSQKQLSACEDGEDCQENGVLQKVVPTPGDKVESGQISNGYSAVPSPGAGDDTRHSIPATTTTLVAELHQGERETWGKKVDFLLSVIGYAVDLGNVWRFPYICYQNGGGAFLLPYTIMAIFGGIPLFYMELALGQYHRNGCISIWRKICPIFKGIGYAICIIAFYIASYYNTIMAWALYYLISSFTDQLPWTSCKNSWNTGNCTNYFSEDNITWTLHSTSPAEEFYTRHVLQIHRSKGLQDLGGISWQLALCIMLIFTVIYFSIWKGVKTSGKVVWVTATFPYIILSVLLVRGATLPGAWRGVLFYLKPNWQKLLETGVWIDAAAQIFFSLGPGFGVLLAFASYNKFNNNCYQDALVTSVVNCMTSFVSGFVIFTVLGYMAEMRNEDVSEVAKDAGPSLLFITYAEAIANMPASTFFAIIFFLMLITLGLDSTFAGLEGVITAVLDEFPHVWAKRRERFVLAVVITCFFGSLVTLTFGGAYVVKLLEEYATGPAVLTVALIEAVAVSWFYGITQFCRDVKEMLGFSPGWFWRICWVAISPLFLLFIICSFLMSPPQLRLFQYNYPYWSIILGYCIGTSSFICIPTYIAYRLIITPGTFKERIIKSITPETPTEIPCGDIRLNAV

Question: With `Cc1cn([C@H]2C[C@H](N=[N+]=[N-])[C@@H](CO)O2)c(=O)[nH]c1=O` [ZIDOVUDINE] as the compound, how does the EC50 [1] read?
Answer: 1.1 µM

Question: Which IC50 (RAW264.7 [2]) does the source give for `C#CCc1cn(C)c2c(O)cccc12` here?
Answer: 39.8 µM

Question: And the IC50 [3]?
Answer: 6.22 µM

Question: For `CCOC(=O)Nc1[nH]c2ccc(Br)cc2c1C(C)(O)C(F)(F)F` (stereo not drawn), which IC50 [4] is on record?
Answer: 0.003 µM

Question: For `Cc1c(CC(=O)O)c2cc(O)ccc2n1C(=O)c1ccc(Cl)cc1`, which Activity (Mus musculus) is on record?
Answer: 44.3%

Question: For `CC(=O)N1C(=O)/C(=N\c2ccc(S(=O)(=O)Nc3nc(C)cc(C)n3)cc2)c2ccccc21`, which EC50 [5] is on record?
Answer: 8 µM

Question: With `CO[C@H]1/C=C/O[C@@]2(C)Oc3c(C)c(O)c4c(O)c(c(/C=N/N5CCN(C)CC5)c(O)c4c3C2=O)NC(=O)/C(C)=C\C=C\[C@H](C)[C@H](O)[C@@H](C)[C@@H](O)[C@@H](C)[C@H](OC(C)=O)[C@@H]1C` [RIFAMPIN] as the compound, how does the MIC99 [6] read?
Answer: 0.25 µg/mL (≈ 0.304 µM)

Question: For `CNCCc1c(/C=C/[C@@]2(C)C[C@H](C=C(C)C)c3c(CCNC)c4ccccc4n32)[nH]c2ccccc12`, which IC50 (Plasmodium falciparum) is on record?
Answer: 0.08 to 1.42 µM

Question: With `O=C(NN1C(=O)CSC1c1ccc([N+](=O)[O-])cc1)c1[nH]c2ccc(F)cc2c1-c1ccccc1` (stereo not drawn) as the compound, how does the MIC99 [6] read?
Answer: 6.25 µg/mL (≈ 13.1 µM)

Question: With `C[C@@H]1CC[C@H]2[C@@H](C)C(=O)O[C@@H]3O[C@@]4(C)CC[C@@H]1[C@]32OO4` [ARTEMISININ] as the compound, how does the IC50 (Plasmodium falciparum) read?
Answer: 0.08 to 1.42 µM

Question: For `Fc1cc2c(c(OCCNCCc3c[nH]c4ccc(F)cc34)c1)OCCC2`, which Ki [7] is on record?
Answer: 0.005 µM

Question: Which EC50 [5] does the source give for `Cc1cc(C)nc(NS(=O)(=O)c2ccc(/N=C3\C(=O)Nc4ccccc43)cc2)n1` here?
Answer: 8 µg/mL

Question: Which MIC99 [6] does the source give for `N#Cc1ccc(C2SCC(=O)N2NC(=O)c2[nH]c3ccc(F)cc3c2-c2ccccc2)cc1` (stereo not drawn) here?
Answer: 6.25 µg/mL (≈ 13.7 µM)

Question: For `CC(C)=C[C@H]1C[C@](C)(/C=C/c2[nH]c3ccccc3c2CCN(C)C)n2c1c(CCN(C)C)c1ccccc12`, which IC50 (Plasmodium falciparum) is on record?
Answer: 0.08 to 1.42 µM

Question: Which IC50 (Plasmodium falciparum) does the source give for `CNCCc1c([C@H]2[C@H]3[C@H](C=C(C)CC3(C)C)c3c(CCNC)c4ccccc4n32)[nH]c2ccccc12` here?
Answer: 0.08 to 1.42 µM

Question: Which results are given for `N#Cc1c(-c2ccccc2)[nH]c2ccccc12`?
Answer: IC50 [8]: 8.5 µM; IC50 (RAW264.7 [9]): 4.8 µM

Question: Which IC50 [10] does the source give for `COP(=O)(c1cc(C)cc(/C=C/C#N)c1)c1c(C(N)=O)[nH]c2ccc(Cl)cc12` (stereo not drawn) here?
Answer: 80 pM

Question: Which IC50 (Plasmodium falciparum) does the source give for `CC(C)=C[C@H]1C[C@@](C)(/C=C/c2[nH]c3ccccc3c2CCN(C)C)n2c1c(CCN(C)C)c1ccccc12` here?
Answer: 0.08 to 1.42 µM

Question: With `CN(CCOc1ccc(CC2SC(=O)NC2=O)cc1)c1ccccn1` (stereo not drawn) [ROSIGLITAZONE] as the compound, how does the Activity (Mus musculus) read?
Answer: 66%

Question: Which results are given for `O/N=C/c1c(-c2ccccc2)[nH]c2ccccc12`?
Answer: IC50 [8]: 6.9 µM; IC50 (RAW264.7 [9]): 4.4 µM

Question: For `COc1ccc2cc(-c3cc4ccccc4[nH]3)ccc2c1`, which IC50 [8] is on record?
Answer: 0.6 µM

Question: Which IC50 (Plasmodium falciparum) does the source give for `CC1=C[C@@H]2c3c(CCN(C)C)c4ccccc4n3[C@@H](c3[nH]c4ccccc4c3CCN(C)C)[C@@H]2C(C)(C)C1` here?
Answer: 0.08 µM

Question: With `C[C@@H]1[C@H]2C[C@@H](C[C@H]1NC(=O)c1cc3c(F)cc(F)cc3[nH]1)C2(C)C` as the compound, how does the MIC [11] read?
Answer: 0.012 µM (≈ 3.99 ng/mL)

Question: With `CCCCC(O)(c1c(NC(=O)OCC)[nH]c2ccc(Br)cc12)C(F)(F)F` (stereo not drawn) as the compound, how does the IC50 [4] read?
Answer: 0.003 µM

Question: Which results are given for `CC(=O)c1c(C)n(Cc2ccccc2)c2ccc(OCCCC(=O)O)cc12`?
Answer: IC50 (Dihydrofolate reductase [12]): 980 µM; IC50 (Dihydrofolate reductase [13]): 150 µM

— ChEMBL document CHEMBL4364320, “An insight into the medicinal perspective of synthetic analogs of indole: A review” (Eur J Med Chem, 2019)
